Test results as given in patent US20090076122A1, “PARP Modulators and Treatment of Cancer” (BIPAR SCIENCES, INC., priority 2005, published 2009).

What was measured:
[1] = biological target: T1, PARP-1 activity of Jurkat cell nuclei (Homo sapiens, UniProt P09874); experiment: Effect of BCNU on the ATP sensitivity of PARP-1 activity of Jurkat cell nuclei; assay type: biochemical; settings: nuclei pre-incubated with 400 nM BCNU for 30 minutes; FIG. 3
T1 construct: endogenous in cells; host or cells: Jurkat cell nuclei
T1 sequence (P09874 whole entry): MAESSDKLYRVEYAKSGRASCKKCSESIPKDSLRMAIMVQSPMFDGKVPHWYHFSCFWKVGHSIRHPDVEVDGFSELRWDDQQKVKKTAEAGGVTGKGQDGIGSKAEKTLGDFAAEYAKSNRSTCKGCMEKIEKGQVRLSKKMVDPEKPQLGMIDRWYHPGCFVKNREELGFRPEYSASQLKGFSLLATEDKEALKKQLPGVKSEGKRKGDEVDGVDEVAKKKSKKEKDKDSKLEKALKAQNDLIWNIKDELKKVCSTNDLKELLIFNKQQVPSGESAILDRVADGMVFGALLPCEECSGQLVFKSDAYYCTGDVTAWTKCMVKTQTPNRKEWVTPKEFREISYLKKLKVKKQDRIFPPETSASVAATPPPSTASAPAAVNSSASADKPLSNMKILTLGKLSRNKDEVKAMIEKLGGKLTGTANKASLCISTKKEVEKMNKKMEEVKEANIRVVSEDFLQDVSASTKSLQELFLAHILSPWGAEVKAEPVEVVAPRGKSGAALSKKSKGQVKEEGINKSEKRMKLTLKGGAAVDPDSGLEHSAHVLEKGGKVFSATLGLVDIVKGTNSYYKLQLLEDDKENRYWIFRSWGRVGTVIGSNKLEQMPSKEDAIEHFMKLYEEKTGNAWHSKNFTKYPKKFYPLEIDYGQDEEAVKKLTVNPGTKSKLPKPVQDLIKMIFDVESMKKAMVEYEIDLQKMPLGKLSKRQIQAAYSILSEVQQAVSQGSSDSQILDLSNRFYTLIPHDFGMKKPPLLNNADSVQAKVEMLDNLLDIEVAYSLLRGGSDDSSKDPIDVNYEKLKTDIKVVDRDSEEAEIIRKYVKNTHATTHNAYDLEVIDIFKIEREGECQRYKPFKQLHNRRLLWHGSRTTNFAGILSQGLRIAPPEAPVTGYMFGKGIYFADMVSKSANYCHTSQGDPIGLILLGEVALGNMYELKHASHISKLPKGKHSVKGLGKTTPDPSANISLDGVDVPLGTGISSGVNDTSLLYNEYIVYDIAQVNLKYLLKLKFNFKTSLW
Protocol: Nuclei equivalent to 2×10^5 Jurkat cells are pre incubated in the presence of various concentrations of ATP. Then PARP activities are assayed by admixing biotinylated-NAD (5 μM final conc.) and incubating for ten minutes. After separating the proteins on a 8% SDS-PAGE gel, the nitrocellulose-blotted, labeled proteins are detected by incubating with streptavidine-HPO complex (1 μg/ml) and by fluorography. Triplicate results are expressed as densitometric units. Experiments in triplicate are carried out as described in FIG. 2, with the exception that pre incubation is done with 400 nM of BCNU for 30 minutes.

purified PARG = experiment: ATP sensitivity of purified PARG (PAR chain length, substrate concentration); assay type: biochemical; settings: 45 minutes
Protocol: Poly(ADP-ribose)glycohydrolase (PARG) is purchased from Biomol or Alexis Co, which enzymes are equal in performance. Jurkat cells are cultured as reported (Buday et al. (1996) J Biol Chem 271:6159-6163) and nuclei are prepared by a published method (Smirnova et al. (2000) J Biol Chem 275:9377-9384). Enzymatic assays for PARP-1 are performed as published (deMurcia (2000) From DNA-damage and Stress Signalling to Cell Death: Poly ADP-ribosylation Reactions). PARG activity is analyzed with polyADP-ribosylated PARP-1 as substrate, containing long chains synthesized with spermine as cofactor (Kun et al. (2004) Biochemistry 43:210-216), or short chains where the cofactor is histone H1. The polyADP-ribose is labeled either with 3H or by biotinylated-NAD. PARG activity is quantitatively measured either by assaying the liberated 3H-ADP-ribose by TLC (Kirsten et al. (1991) Exp Cell Res 194:1-8) (chromatography carried out on PEI-cellulose sheets with 0.9 M acetic acid and 0.3 M LiCl as solvent) or by immunoassay of the remaining biotinylated (ADP-ribose)n (Bakondi et al. (2004) Exp Dermatol 13:170-178). All other reagents are of highest analytical purity. Short (Δ-Δ)- or long ([…]-[…])-chain PAR-PARP molecules are prepared as described in the methods and attached to the surface of assay wells. Purified PARG (15 mU/assay) is added to the wells in the presence of various concentrations of ATP and incubated for 45 minutes. The attached amount of polymers is determined in triplicate experiments (zero minute values for short chains were 0.5 OD, and 1.8 OD for long chain polymers). PARG (15 mU/assay) is incubated with various concentrations of 32P-PAR (long chain polymer) in the presence or absence of 6 mM of ATP for 45 minutes and the amount of liberated 32P-ADP-ribose is determined by TLC and liquid scintillation of the cut out portions of the plate located by autoradiography. Experiments are performed in triplicate.

[2] = biological target: T2, PARP-1 arginine-138 mutant (isoleucine, Zn2+ finger 2) (Homo sapiens, UniProt P09874, R138I); experiment: Enzymatic activity of arginine-138 (R138I) mutant PARP-1 with ATP; assay type: biochemical; settings: arginine-138 mutated to isoleucine in Zn2+ finger 2; FIG. 1
T2 construct: made in house; host or cells: Sf9 (baculovirus)
T2 sequence (P09874 whole entry R138I): as the sequence (P09874 whole entry) above, with R138I counted along it
Description: (§1) PARP-1 is purified from calf thymus as reported earlier (Molinet et al. (1993) EMBO J. 12:2109-2117). Alternatively recombinant PARP-1 is isolated from Sodoptera Fugiperda (Sf9) cells infected with recombinant baculovirus, expressing the human PARP-1 gene, constructed according to the instructions of Pharmingen. The cDNA of the amino acid exchange mutant R34G and R138 il of PARP-1 is created by the mega primer method (Kannann et al. (1989) Nucl Acids Res 17:5404). The mutated gene is cloned into the transfer vector pV 1392 and the recombinant virus is generated by the Baculogold technology of Pharmigen. The mutated proteins are expressed in Sf9 cells, purified and assayed as reported (Huang et al. (2004) Biochemistry 43:217-223; Kirsten et al. (2004) Methods in Molecular Biology 287, Epigenetics Protocols 137-149).
(§2) Assays are carried out as described (Kun et al. (2004) Biochemistry, 43:210-216) in triplicate (200 μM 3H labeled NAD+, 28 dpm/pmol, 0.5 pmol PARP-1, 3 mM spermine, pH 7.3 t=7.5 min). Identical results are obtained when ATP is replaced by its non-hydrolysable analog (Kun et al. (2004) Biochemistry, 43:210-216).

[3] = biological target: T3, PARG activity of Jurkat cell nuclear extract (Homo sapiens, UniProt Q86W56); experiment: Effect of ATP on the glycohydrolase activity of Jurkat cell nuclear extract; assay type: biochemical; settings: 8 mM ATP; polyADP-ribosylated PARP-1 with long polymers (50 ADP-ribose units); FIG. 4
T3 construct: endogenous in cells; host or cells: Jurkat cell nuclear extract
T3 sequence (Q86W56 whole entry): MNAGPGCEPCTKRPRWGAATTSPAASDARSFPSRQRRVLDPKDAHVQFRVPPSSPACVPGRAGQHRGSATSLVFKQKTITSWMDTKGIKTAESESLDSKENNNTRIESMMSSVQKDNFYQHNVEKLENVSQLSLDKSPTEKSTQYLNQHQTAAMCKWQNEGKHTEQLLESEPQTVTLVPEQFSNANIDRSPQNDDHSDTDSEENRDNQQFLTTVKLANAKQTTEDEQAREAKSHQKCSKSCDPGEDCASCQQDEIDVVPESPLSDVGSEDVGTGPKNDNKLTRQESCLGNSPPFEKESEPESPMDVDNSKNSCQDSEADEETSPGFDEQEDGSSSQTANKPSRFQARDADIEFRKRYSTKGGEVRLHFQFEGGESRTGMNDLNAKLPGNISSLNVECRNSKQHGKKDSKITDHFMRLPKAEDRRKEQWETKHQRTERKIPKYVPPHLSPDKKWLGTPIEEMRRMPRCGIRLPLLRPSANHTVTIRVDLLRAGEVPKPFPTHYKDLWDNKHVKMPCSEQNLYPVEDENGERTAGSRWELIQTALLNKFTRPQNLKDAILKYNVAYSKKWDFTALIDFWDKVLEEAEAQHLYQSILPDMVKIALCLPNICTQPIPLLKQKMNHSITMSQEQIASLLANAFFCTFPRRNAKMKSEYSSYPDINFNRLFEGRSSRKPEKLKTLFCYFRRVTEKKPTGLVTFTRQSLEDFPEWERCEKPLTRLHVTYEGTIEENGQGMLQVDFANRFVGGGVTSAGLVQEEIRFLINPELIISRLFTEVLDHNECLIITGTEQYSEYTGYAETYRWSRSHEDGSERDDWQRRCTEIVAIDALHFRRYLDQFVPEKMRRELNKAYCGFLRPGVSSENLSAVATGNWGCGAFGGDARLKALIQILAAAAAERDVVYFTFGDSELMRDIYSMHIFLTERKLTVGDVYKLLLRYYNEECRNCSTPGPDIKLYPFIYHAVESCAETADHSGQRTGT
Protocol: Poly(ADP-ribose)glycohydrolase (PARG) is purchased from Biomol or Alexis Co, which enzymes are equal in performance. Jurkat cells are cultured as reported (Buday et al. (1996) J Biol Chem 271:6159-6163) and nuclei are prepared by a published method (Smirnova et al. (2000) J Biol Chem 275:9377-9384). Enzymatic assays for PARP-1 are performed as published (deMurcia (2000) From DNA-damage and Stress Signalling to Cell Death: Poly ADP-ribosylation Reactions). PARG activity is analyzed with polyADP-ribosylated PARP-1 as substrate, containing long chains synthesized with spermine as cofactor (Kun et al. (2004) Biochemistry 43:210-216), or short chains where the cofactor is histone H1. The polyADP-ribose is labeled either with 3H or by biotinylated-NAD. PARG activity is quantitatively measured either by assaying the liberated 3H-ADP-ribose by TLC (Kirsten et al. (1991) Exp Cell Res 194:1-8) (chromatography carried out on PEI-cellulose sheets with 0.9 M acetic acid and 0.3 M LiCl as solvent) or by immunoassay of the remaining biotinylated (ADP-ribose)n (Bakondi et al. (2004) Exp Dermatol 13:170-178). All other reagents are of highest analytical purity. Poly(ADP-ribosylated)-PARP-1 (2 μg protein is incubated with 50 μM of biotinylated-NAD as described above) and is attached to the walls of 96-well plates. ([…] et al. (1989) Nucl. Acids Res. 17:5404). […]

[4] = biological target: T1, PARP-1 activity of Jurkat cell nuclei; experiment: Effect of ATP on the PARP-1 activity of Jurkat cell nuclei; assay type: biochemical; settings: 1 mM ATP; isolated Jurkat cell nuclei; FIG. 2
Protocol: Poly(ADP-ribose)glycohydrolase (PARG) is purchased from Biomol or Alexis Co, which enzymes are equal in performance. Jurkat cells are cultured as reported (Buday et al. (1996) J Biol Chem 271:6159-6163) and nuclei are prepared by a published method (Smirnova et al. (2000) J Biol Chem 275:9377-9384). Enzymatic assays for PARP-1 are performed as published (deMurcia (2000) From DNA-damage and Stress Signalling to Cell Death: Poly ADP-ribosylation Reactions). PARG activity is analyzed with polyADP-ribosylated PARP-1 as substrate, containing long chains synthesized with spermine as cofactor (Kun et al. (2004) Biochemistry 43:210-216), or short chains where the cofactor is histone H1. The polyADP-ribose is labeled either with 3H or by biotinylated-NAD. PARG activity is quantitatively measured either by assaying the liberated 3H-ADP-ribose by TLC (Kirsten et al. (1991) Exp Cell Res 194:1-8) (chromatography carried out on PEI-cellulose sheets with 0.9 M acetic acid and 0.3 M LiCl as solvent) or by immunoassay of the remaining biotinylated (ADP-ribose)n (Bakondi et al. (2004) Exp Dermatol 13:170-178). All other reagents are of highest analytical purity. […] After separating the proteins on a 8% SDS-PAGE gel, the nitrocellulose-blotted, labeled proteins are detected by incubating with streptavidine-HPO complex (1 μg/ml) and by fluorography. Triplicate results are expressed as densitometric units.

[5] = biological target: T4, PARP-1 arginine-34 mutant (R34G, Zn2+ finger 1) (Homo sapiens, UniProt P09874, R34G); experiment: Enzymatic activity of arginine-34 (R34G) mutant PARP-1 with ATP; assay type: biochemical; settings: arginine-34 replaced by glycine in Zn2+ finger 1; 200 μM NAD+, 3 mM spermine, pH 7.3; FIG. 1
T4 construct: made in house; host or cells: Sf9 (baculovirus)
T4 sequence (P09874 whole entry R34G): as the sequence (P09874 whole entry) above, with R34G counted along it
Description: as §1, §2

solid tumor colon cancer = experiment: Treatment of a subject suffering from solid tumor colon cancer; assay type: in vivo; settings: orally or parenterally; after few days
Protocol: A subject suffering from solid tumor colon cancer is treated with a therapeutically effective amount of compound of formula
(§3) where the compound is administered orally or parenterally.

inflammation = experiment: Treatment of a subject suffering from inflammation; assay type: in vivo; settings: orally or parenterally; after few days
Protocol: A subject suffering from inflammation is treated with a therapeutically effective amount of compound of formula
as §3

CNS disease = experiment: Treatment of a subject suffering from CNS disease; assay type: in vivo; settings: orally or parenterally; after few days
Protocol: A subject suffering from CNS disease is treated with a therapeutically effective amount of compound of formula
as §3

## Nc1ncnc2c1ncn2[C@@H]1O[C@H](COP(=O)(O)OP(=O)(O)OP(=O)(O)O)[C@@H](O)[C@H]1O [ATP]
[1]
  response to DNA damage by BCNU as assayed by PARP-1 activity, with externally added ATP: completely removed
Purified PARG; 6 mM ATP, long chain polymers as substrate, FIG. 6
  exonucleotidase activity of PARG (liberation of ADP-ribose): activation
Purified PARG; long-chain PAR (average chain length 50 ADPR), PARG 15 mU/assay, FIG. 5
  acceleration of decay of longer ADP-ribose oligomers by PARG: accelerated
Purified PARG; short-chain PAR, PARG 15 mU/assay, FIG. 5
  acceleration of degradation of short ADP-ribose oligomers by PARG: not accelerated
[2]
  effect of the mutation on the inhibitory action of ATP on PARP-1: negligible effect
[3]
  effect on PARG activity (decay of long PAR polymer): significantly accelerates
[4]
  inhibition of PARP-1 activity in nuclei: 80%
[5]
  inhibitory action of ATP on PARP-1 enzymatic activity: abolished

## O=c1ccc2c(I)c(O)ccc2o1 [drawing 14]
Solid tumor colon cancer
  symptoms of the cancer: markedly reduced

## O=c1ccc2c(I)c(O)ccc2o1 [drawing 20]
inflammation
  symptoms of inflammation: markedly reduced

## O=c1ccc2c(I)c(O)ccc2o1 [drawing 26]
CNS disease
  symptoms of CNS disease: markedly reduced
